Experimental data as given in US20120010290A1, “Methods of Treating an Overweight or Obese Subject” (priority 2008, published 2012).

System: diet-induced obese C57BL/6NTac mice
Experiment: Weight loss study in diet-induced obese mice
Type: in vivo
Conditions: oral 1.0 mg/kg in 10% gelucire in deionised water, once a day for 7 days; C57BL/6NTac mice on 60% fat diet; after 7 days
Procedure: A weight loss study was conducted in obese mice. The mice in this study were not genetically obese, but prior to and during the study, obesity was induced by a high-fat diet. Twelve week-old C57BL/6NTac mice, maintained on a 60% fat diet prior to and during the study, were separated into two groups, with eight animals per group. Average body weight of the mice was approximately 47 g at the start of the study.
One group was orally administered 1.0 mg/kg of compound H in 10% gelucire in deionised water, and one group was administered 10% gelucire in deionised water (vehicle). Compound H is as follows:
Mice received administrations once a day for 7 days. After 7 days, the average weight loss of mice administered compound H was 13.2%.

## CCN(CC)C/C=C\c1ccccc1S(=O)(=O)Nc1ccc2c(c1C(=O)O)CCCC2 [compound H]
  average weight loss: 13.2%
